Reference: patent publication US20260115216A1, “NUCLEIC ACID PRECURSOR” (priority 2022, published 2026)
Read-outs that look alike come from different tables or passages of the source.

Key:
nematodes [1] = settings: nematode, literature values of other drugs; cited from earlier work
nematodes [2] = test: Lifespan extension in model organism (nematode), survival analysis (Test Examples 8 and 10); assay type: in vivo; settings: for average lifespan extended compared to the control: 1% DMSO
Experimental: The ATP prodrug prepared in Example 1, dissolved in DMSO, was added to the liquid Nematode Growth Medium (NGM) that had been sterilized and maintained at 60° C. at a final concentration of 100 μM, so as to prepare an ATP prodrug-containing NGM plate. At this time, the final concentration of DMSO in the NGM was adjusted to 1%. […] Onto the surface of the NGM plate used immediately before survival analysis, the bacterium Escherichia coli strain OP50 stirred in M9 buffer was applied as food for the nematodes.
Thirty-five nematodes were transferred to the NGM plate, after performing age synchronization. The nematodes were transferred to a new NGM plate every day from the first day of adulthood (the third day) to the seventh day, and every two days from the eighth day until the nematodes died. At the same time, the numbers of living nematodes and dead nematodes were recorded. Survival status of the nematodes was determined by whether they reacted when touched. Average lifespan was calculated from the results obtained, and the average lifespans were compared to determine the lifespan extension rate of the nematodes. This experiment was conducted four times to confirm the reproducibility (In cases of both with and without the addition of proATP, n=114).
ATP prodrug-neo dissolved in DMSO, was added to the liquid Nematode Growth Medium (NGM) that had been sterilized and maintained at 60° C. at a final concentration of 200 µM, so as to prepare an ATP prodrug-neo-containing NGM plate. At this time, the final concentration of DMSO in the NGM was adjusted to 1%. […]
Thirty-five nematodes were transferred to the NGM plate, after performing age synchronization. […] At the same time, the numbers of living nematodes and dead nematodes were recorded. Survival status of the nematode was determined by whether they reacted when touched. Average lifespan was calculated from the results obtained, and the average lifespans were compared to determine the lifespan extension rate of the nematodes. […]

[3] = tested on: HDF75 (human dermal fibroblasts derived from a person); test: Effect of ATP prodrug-neo on intracellular ATP concentration (Test Example 9); assay type: cell-based; settings: HDF75, varying concentrations, 24 hours, ATP per cell
Experimental: HDF75 (human dermal fibroblasts derived from a person) (Cell Applications, Inc.) were seeded at 5000 cells per well in the human dermal fibroblast growth medium, and after 3 hours, a solution of the ATP prodrug-neo prepared in Example 2 in DMSO at varying concentrations was added to the well. After 24 hours, the amount of DNA was measured using the picogreen and converted to cell count from a calibration curve separately created. The amount of ATP was quantified using the ATP measurement kit (Dojin Chemical), and the amount of ATP per cell was calculated.

[4] = tested on: NHDF (normal human dermal fibroblasts); test: Cytotoxicity by LDH release (Test Example 5); assay type: cell-based; settings: 24 hours
Experimental: NHDF (normal human dermal fibroblasts) were seeded at 5000 cells per well in DMEM/F12 with 10% FBS and 1% penicillin/streptomycin, and after 3 hours, a solution of the ATP prodrug prepared in Example 1 in DMSO at varying concentrations was added to the wells. After 24 hours, the release of the cytotoxicity marker, lactate dehydrogenase (LDH), was quantified using the LDH assay kit (Dojin Chemical), and the cytotoxicity was calculated.

nematodes [5] = test: ATP level in model organism (nematode); assay type: in vivo; settings: nematodes on NGM plate with 100 μM ATP prodrug, seventh day of cultivation
Experimental: The culture of the nematodes and the addition of the ATP prodrug to the nematodes were conducted under the same conditions as those in the survival analysis. On the seventh day of cultivation, five nematodes were collected for each condition, totaling twenty-five nematodes, and were transferred to a 24-well plate containing PBS, followed by conducting ultrasonic disruption while kept on ice for one minute. Then, the crushed liquid was collected into a microtube, and after centrifugation (15,000 rpm, 30 minutes, 4° C.), the supernatant was collected. Amount of the ATP in the supernatant was quantified using the ATP measurement kit (Dojin Chemical), and the amount of the ATP per nematode was calculated.

Human fibroblasts (NHDF) = test: Effect on intracellular ATP concentration using normal cells (Test Example 3); assay type: cell-based; settings: 200 μM ATP prodrug, one day, ATP per cell
Experimental: Human fibroblasts (NHDF) (Takara Bio) were seeded at 5000 cells per well in DMEM low glucose, 10% FBS, and 1% penicillin/streptomycin, and, after 3 hours, a solution of the ATP prodrug prepared in Example 1 in DMSO at varying concentrations was added to the wells. One day later, the amount of DNA was measured using picogreen, and converted to cell count from a calibration curve separately created. The ATP level was quantified using the ATP measurement kit (Dojin Chemical), and the ATP level per cell was calculated.

[6] = tested on: Human liver cancer cells (HepG2); test: Intracellular ATP level in liver cancer cells (Test Example 6); assay type: cell-based; settings: HepG2 (cultured cells), varying concentrations, 24 hours
Experimental: Human liver cancer cells (HepG2) were seeded at 5000 cells per well in DMEM with 10% FBS and 1% penicillin/streptomycin, and after 3 hours, a solution of the ATP prodrug prepared in Example 1 in DMSO at varying concentrations was added to the wells. After 24 hours, the amount of DNA was measured using picogreen, and converted to cell count based on a calibration curve separately created. The ATP level was quantified using the ATP measurement kit (Dojin Chemical), resulting in the ATP level per cell.

[7] = tested on: AMP-activated protein kinase (AMPK); test: Intracellular ATP levels using AMPK inhibitor (Test Example 7); settings: normal human dermal fibroblasts, ATP prodrug 100 μM, 24 hours
[8] = tested on: Human Dermal Fibroblasts (HDF) derived from human; test: Intracellular ATP level in young and aged human dermal fibroblasts (Test Example 4 A); assay type: cell-based; settings: 50 μM, 24 hours
Experimental: (§1) Human Dermal Fibroblasts (HDF) derived from human (Toyobo) were seeded at 5000 cells/well in DMEM low glucose, 10% FBS, and 1% penicillin/streptomycin, and three hours later, the ATP prodrug dissolved in DMSO was added at either 0 or 50 μM. (A) The sample was incubated for 24 hours. The amount of DNA was measured using picogreen, and converted to cell count from a calibration curve separately created. The ATP level was quantified using the ATP measurement kit (Dojin Chemical), and the ATP level per cell was calculated. (B) 75 μM of the ATP prodrug was added to the HDF derived from human, and the medium was replaced with serum-free medium comprising 200 μM of hydrogen peroxide after 24 hours, followed by incubating the mixture for 6 hours. After 6 hours, the cells were washed, and the cell numbers were compared using the WST-8 kit.

HDF derived from human = test: Oxidative stress load (hydrogen peroxide) on aged cells, cell number by WST-8 (Test Example 4 B); assay type: cell-based; settings: HDF from person, 75 μM ATP prodrug 24 hours, then 200 μM hydrogen peroxide 6 hours
Experimental: as §1

MCF7 cells = test: Effect of ATP analogs on intracellular ATP concentration in MCF7 cells (Test Example 2); assay type: cell-based, human; settings: MCF7, 100 μM, one day and two days, normalized to DNA, compared with adenosine, AMP
Experimental: Adenosine, AMP, ATP, and the ATP prodrug were added to the culture medium of MCF7 cells (5000 cells/well) at a concentration of 100 μM, and, one day and two days later, ATP was measured, followed by normalizing the results to the DNA amounts.

[9] = tested on: MCF7 (human breast cancer cells); test: Effect of ATP prodrug on intracellular ATP concentration in MCF7 cells (Test Example 1); assay type: cell-based; settings: MCF7, 100 μM ATP prodrug, after 3 days, ATP per cell
Experimental: MCF7 (human breast cancer cells) (RIKEN BRC) were seeded at 5000 cells per well in DMEM low glucose, 10% FBS, and 1% penicillin/streptomycin, and, after 3 hours, solutions of the ATP prodrug prepared in Example 1 in DMSO at varying concentrations were added to those wells. Three days later, the amounts of DNA were measured using picogreen, and converted to cell counts from a calibration curve separately created. The amount of ATP was quantified using the ATP measurement kit (Dojin Chemical), and the amount of ATP per cell was calculated.

normal pig liver cells = test: Intracellular ATP level in primary liver cells (Test Example 6); assay type: cell-based; settings: varying concentrations, 24 hours
Experimental: In addition to this study, normal pig liver cells were seeded at 5000 cells per well in the liver cell differentiation environment (Hepatp-STIM, 1 μg/100 mL EGF, 1% penicillin/streptomycin), and after 3 hours, a solution of the ATP prodrug in DMSO at varying concentrations was added to the wells. The DNA amount was measured using picogreen 24 hours later. The ATP level was quantified using the ATP measurement kit (Dojin Chemical), and the ATP level was provided.

[10] = cited from earlier work

## Oc1ccc(C=Cc2cc(O)cc(O)c2)cc1 [Resveratrol]
Nematodes [1]
  Lifespan Extension Rate: 110%

## C[C@H](NP(=O)(N[C@@H](C)C(=O)OCC(C)(C)C)OC[C@H]1O[C@@H](n2cnc3c(N)ncnc32)C(O)C1O)C(=O)OCC(C)(C)C (stereo partly shown) [ATP prodrug-neo]
Nematodes [2]; nematodes on NGM plate with 200 µM ATP prodrug-neo
  average lifespan extended compared to the control: approximately 26%
[3]
  intracellular ATP levels: increased

## CCC(CC)COC(=O)[C@H](C)N[P@](=O)(OC[C@H]1O[C@@H](n2cnc3c(N)ncnc32)[C@H](O)[C@@H]1O)Oc1ccccc1 [ATP prodrug, (S)-2-Ethylbutyl 2-(((S)-(((2R,3S,4R,5R)-5-(6-amino-9H-purine-9-yl)-3,4-dihydroxy-tetrahydrofuran-2-yl)methoxy) (phenoxy)phosphoryl)amino)propanoate]
[4]; 256 μM
  amount of LDH release: remains low
[4]; LDH assay
  cytotoxicity to cells: low cytotoxicity
Nematodes [5]
  amount of ATP per nematode higher than control: approximately 23%
Human fibroblasts (NHDF)
  intracellular ATP level compared to the control (0 μM): 1.7 times
Nematodes [2]; nematode, the present invention
  Lifespan Extension Rate: 133%
Nematodes [2]; nematodes on NGM plate with 100 μM ATP prodrug
  average lifespan extended compared to the control: approximately 33%
[6]
  intracellular ATP levels: increased
[7]
  AMPK activation (suggested from inhibitor experiment): activates the AMPK
[8]
  intracellular ATP levels: increased
HDF derived from human
  cell number under oxidative stress: suppresses the decrease in cell number
MCF7 cells
  intracellular ATP level: increased
[9]
  intracellular ATP amount compared to the control level: approximately 2.5 times
Normal pig liver cells
  intracellular ATP levels: increased

## Nc1ncnc2c1ncn2[C@@H]1O[C@H](COP(=O)(O)OP(=O)(O)OP(=O)(O)O)[C@@H](O)[C@H]1O [ATP, adenosine triphosphate]
[10]
  half-life in blood: about 10 seconds

## NC(=O)c1cccnc1 [Nicotinamide]
Nematodes [1]
  Lifespan Extension Rate: 116%

## CN(C)C(=N)N=C(N)N [Metformin]
Nematodes [1]
  Lifespan Extension Rate: 127%
